Test system: adult patients diagnosed with MDD
Assay: Eight-week randomized, double-blind, placebo-controlled study: association of sequenced gene markers (Tables 1-17) with vilazodone response as change of MADRS
Type: in vivo, human
Conditions: mean MADRS decrease
Description: There was a wide range of inter-individual variability in response to vilazodone as well as to placebo and the active comparators. This variability may be partially due to genetic differences among the individuals treated. This example illustrates a randomized, double-blind, placebo-controlled, multicenter, eight-week study designed to discover genetic markers of response to vilazodone in adult patients diagnosed with MDD by the DSM-IV-TR criteria. Patients must have met all of the following inclusion criteria to be considered for enrollment in the study: (1) 18-65 years of age; (2) diagnosis of MDD, single episode or recurrent, according to DSM-IV-TR (296.2/296.3) with a current Major Depressive Episode of less than one year's duration with a minimum duration of at least 4 weeks; (3) HAM-D score≧22 on the first 17 items of the 21-item HAM-D at screening and baseline visits; (4) HAM-D item 1 (depressed mood) score≧2 at the screening visit and the baseline visit; (5) provision of written informed consent to participate; and (6) ability to speak, read and understand English and to respond to questions and follow simple instructions.
Following randomization into vilazodone and placebo groups, patients began the forced titration schedule. Patients received 10 mg qd until Visit 3 (approximately Day 7). At Visit 3 patients received 20 mg qd until Visit 4 (approximately Day 14). At Visit 4 patients received the target dose of 40 mg qd (approximately Day 15). A total of 152 patients completed the vilazodone arm, while 154 patients completed the placebo arm.
This example illustrates genotyping of the study group for the ACE, ATP5C3, BCL2L1, CYP2C9, DRD3, FOS, DTNBP1, GABRG3, GRIA4, LAMA4, MAPK1, NPY1R, OPRD1, OPRM1, PER3, PLCB1, and PSMD1 polymorphic sites selected by the inventors herein for analysis. Genomic DNA was isolated from blood obtained from each individual and amplified target regions containing the polymorphic sites in Tables A-21 to A-37 (Appendix A) were sequenced to determine the genotypes at these polymorphic sites. Tailed (Universal M13 Forward and Reverse) PCR primers were designed using the sequence of SEQ ID NO:1 for ACE, SEQ ID NO:2 for ATP5C3, SEQ ID NO:3 for BCL2L1, SEQ ID NO:4 for CYP2C9, SEQ ID NO:5 for DRD3, SEQ ID NO:6 for FOS, SEQ ID NO:7 for DTNBP1, SEQ ID NO:8 for GABRG3, SEQ ID NO:9 for GRIA4, SEQ ID NO:10 for LAMA4, SEQ ID NO:11 for MAPK1, SEQ ID NO:12 for NPY1R, SEQ ID NO:13 for OPRD1, SEQ ID NO:14 for OPRM1, SEQ ID NO:15 for PER3, SEQ ID NO:16 for PLCB1, and SEQ ID NO:17 for PSMD1. Amplified PCR products were sequenced using Applied Biosystems' Big Dye® Terminator v 3.1 cycle sequencing kit according to manufacturer's instructions. The reaction products were then electrophoresed using an Applied Biosystems 3700 or 3730xl DNA analyzer. Polymorphisms were identified using the Polyphred program, and confirmed by visual inspection.
Haplotypes were estimated from the unphased genotypes using a computer-implemented algorithm for assigning haplotypes to unrelated individuals in a population sample, essentially as described in WO 01/80156. In this method, haplotypes are assigned directly from individuals who are homozygous at all sites or heterozygous at no more than one of the variable sites. This list of haplotypes is then used to deconvolute the unphased genotypes in the remaining (multiply heterozygous) individuals.
This example illustrates analysis of the markers in Tables A-1 to A-17 (Appendix A) for association with vilazodone response. A proprietary algorithm was used as a tool for finding associations between markers and outcomes. The clinical outcomes were improvement in disease over eight weeks of treatment with vilazodone as measured by the MADRS scale. A linear model was first fitted on the covariates, which were treatment center, race, ethnicity, and baseline values. […]

[1] = PLCB1 marker 54, carriers vs non-carriers
[2] = PLCB1 marker 55, carriers vs non-carriers
[3] = PLCB1 marker 56, carriers vs non-carriers
[4] = PLCB1 marker 57, carriers vs non-carriers
[5] = PLCB1 marker 58, carriers vs non-carriers
[6] = PLCB1 marker 59, carriers vs non-carriers
[7] = PLCB1 marker 60, carriers vs non-carriers
[8] = PLCB1 marker 61, carriers vs non-carriers
[9] = PLCB1 marker 62, carriers vs non-carriers
[10] = PLCB1 marker 63, carriers vs non-carriers
[11] = PLCB1 marker 64, carriers vs non-carriers
[12] = PLCB1 marker 65, carriers vs non-carriers
[13] = PLCB1 marker 66, carriers vs non-carriers
[14] = PLCB1 marker 67, carriers vs non-carriers
[15] = PLCB1 marker 68, carriers vs non-carriers
[16] = PLCB1 marker 96, carriers vs non-carriers
[17] = PLCB1 marker 97, carriers vs non-carriers
[18] = PLCB1 marker 98, carriers vs non-carriers
[19] = PLCB1 marker 99, carriers vs non-carriers
[20] = PLCB1 marker 100, carriers vs non-carriers
[21] = PLCB1 marker 101, carriers vs non-carriers
[22] = PLCB1 marker 102, carriers vs non-carriers
[23] = PLCB1 marker 103, carriers vs non-carriers
[24] = PLCB1 marker 104, carriers vs non-carriers
[25] = PLCB1 marker 105, carriers vs non-carriers
[26] = PLCB1 marker 106, carriers vs non-carriers
[27] = PLCB1 marker 107, carriers vs non-carriers
[28] = PLCB1 marker 108, carriers vs non-carriers
[29] = PLCB1 marker 109, carriers vs non-carriers
[30] = PLCB1 marker 110, carriers vs non-carriers
[31] = PLCB1 marker 111, carriers vs non-carriers
[32] = PLCB1 marker 112, carriers vs non-carriers
[33] = PLCB1 marker 113, carriers vs non-carriers
[34] = PLCB1 marker 114, carriers vs non-carriers
[35] = PLCB1 marker 115, carriers vs non-carriers
[36] = PLCB1 marker 116, carriers vs non-carriers
[37] = PLCB1 marker 117, carriers vs non-carriers
[38] = PLCB1 marker 118, carriers vs non-carriers
[39] = PLCB1 marker 119, carriers vs non-carriers
[40] = PLCB1 marker 120, carriers vs non-carriers
[41] = PLCB1 marker 121, carriers vs non-carriers
[42] = PLCB1 marker 122, carriers vs non-carriers
[43] = PLCB1 marker 123, carriers vs non-carriers
[44] = PLCB1 marker 124, carriers vs non-carriers
[45] = PLCB1 marker 125, carriers vs non-carriers
[46] = PLCB1 marker 126, carriers vs non-carriers
[47] = PLCB1 marker 127, carriers vs non-carriers
[48] = PLCB1 marker 128, carriers vs non-carriers
[49] = PLCB1 marker 129, carriers vs non-carriers
[50] = PLCB1 marker 130, carriers vs non-carriers

Cl.N#Cc1ccc2[nH]cc(CCCCN3CCN(c4ccc5oc(C(N)=O)cc5c4)CC3)c2c1 [Vilazodone, 5-{4-[4-(5-Cyano-3-indolyl)-butyl]-1-piperazinyl}-benzofuran-2-carboxamide hydrochloride]
Response difference (Cauc. only) [1]: −6.6
Response difference (all ethnic.) [1]: −5.1
Response difference (Cauc. only) [2]: −5.9
Response difference (all ethnic.) [2]: −4.3
Response difference (Cauc. only) [3]: −6
Response difference (all ethnic.) [3]: −4.3
Response difference (Cauc. only) [4]: −6
Response difference (all ethnic.) [4]: −4.3
Response difference (Cauc. only) [5]: −5.4
Response difference (all ethnic.) [5]: −3.9
Response difference (Cauc. only) [6]: −6.4
Response difference (all ethnic.) [6]: −5.1
Response difference (Cauc. only) [7]: −5.8
Response difference (all ethnic.) [7]: −4.6
Response difference (Cauc. only) [8]: −6.4
Response difference (all ethnic.) [8]: −5.2
Response difference (Cauc. only) [9]: −7
Response difference (all ethnic.) [9]: −5.6
Response difference (Cauc. only) [10]: −7
Response difference (all ethnic.) [10]: −5.6
Response difference (Cauc. only) [11]: −7
Response difference (all ethnic.) [11]: −5.6
Response difference (Cauc. only) [12]: −7
Response difference (all ethnic.) [12]: −5.6
Response difference (Cauc. only) [13]: −7
Response difference (all ethnic.) [13]: −5.6
Response difference (Cauc. only) [14]: −7
Response difference (all ethnic.) [14]: −5.6
Response difference (Cauc. only) [15]: −7
Response difference (all ethnic.) [15]: −5.6
Response difference (Cauc. only) [16]: −7.3
Response difference (all ethnic.) [16]: −4.2
Response difference (Cauc. only) [17]: −7.3
Response difference (all ethnic.) [17]: −4.2
Response difference (Cauc. only) [18]: −7.3
Response difference (all ethnic.) [18]: −4.2
Response difference (Cauc. only) [19]: −7.3
Response difference (all ethnic.) [19]: −4.2
Response difference (Cauc. only) [20]: −7.3
Response difference (all ethnic.) [20]: −4.2
Response difference (Cauc. only) [21]: −6
Response difference (all ethnic.) [21]: −4.7
Response difference (Cauc. only) [22]: −6
Response difference (all ethnic.) [22]: −4.7
Response difference (Cauc. only) [23]: −6.6
Response difference (all ethnic.) [23]: −4.6
Response difference (Cauc. only) [24]: −6.6
Response difference (all ethnic.) [24]: −4.6
Response difference (Cauc. only) [25]: −6.6
Response difference (all ethnic.) [25]: −4.6
Response difference (Cauc. only) [26]: −6.6
Response difference (all ethnic.) [26]: −4.6
Response difference (Cauc. only) [27]: −6.6
Response difference (all ethnic.) [27]: −4.6
Response difference (Cauc. only) [28]: −6.6
Response difference (all ethnic.) [28]: −4.6
Response difference (Cauc. only) [29]: −6.6
Response difference (all ethnic.) [29]: −4.6
Response difference (Cauc. only) [30]: −6.7
Response difference (all ethnic.) [30]: −4.7
Response difference (Cauc. only) [31]: −6.7
Response difference (all ethnic.) [31]: −4.7
Response difference (Cauc. only) [32]: −6.7
Response difference (all ethnic.) [32]: −4.7
Response difference (Cauc. only) [33]: −6.7
Response difference (all ethnic.) [33]: −4.7
Response difference (Cauc. only) [34]: −6.7
Response difference (all ethnic.) [34]: −4.7
Response difference (Cauc. only) [35]: −6.7
Response difference (all ethnic.) [35]: −4.7
Response difference (Cauc. only) [36]: −6.7
Response difference (all ethnic.) [36]: −4.7
Response difference (Cauc. only) [37]: −6.7
Response difference (all ethnic.) [37]: −4.7
Response difference (Cauc. only) [38]: −6.7
Response difference (all ethnic.) [38]: −4.7
Response difference (Cauc. only) [39]: −6.7
Response difference (all ethnic.) [39]: −4.7
Response difference (Cauc. only) [40]: −6.7
Response difference (all ethnic.) [40]: −4.7
Response difference (Cauc. only) [41]: −6.7
Response difference (all ethnic.) [41]: −4.7
Response difference (Cauc. only) [42]: −6.7
Response difference (all ethnic.) [42]: −4.7
Response difference (Cauc. only) [43]: −6.7
Response difference (all ethnic.) [43]: −4.7
Response difference (Cauc. only) [44]: −5.9
Response difference (all ethnic.) [44]: −4.2
Response difference (Cauc. only) [45]: −5.9
Response difference (all ethnic.) [45]: −4.2
Response difference (Cauc. only) [46]: −5.9
Response difference (all ethnic.) [46]: −4.2
Response difference (Cauc. only) [47]: −5.9
Response difference (all ethnic.) [47]: −4.2
Response difference (Cauc. only) [48]: −5.9
Response difference (all ethnic.) [48]: −4.2
Response difference (Cauc. only) [49]: −5.9
Response difference (all ethnic.) [49]: −4.2
Response difference (Cauc. only) [50]: −5.9
Response difference (all ethnic.) [50]: −4.2
